Type in all cases: biochemical, human
Holding throughout (conditions): 37° C. 30 minutes, pH 7.0, untreated enzyme as 100

Test [1] has as its system endothelin converting enzyme I. The experiment in a line: Effect of inhibitors on activity of converting big endothelin-1 to endothelin-1, enzyme I. On the procedure:
(§1) 10 μl of a 100 nmol/ml big endothelin-1 solution is added to 1 ml of an enzyme solution (10 mM trishydrochloric acid-0.15M sodium chloride buffer; pH 7.0), and the enzymatic reaction is carried out at 37° C. for 3 hours. After completion of the reaction, 10 μl of a 0.1M EDTA solution is added thereto to discontinue the reaction. Thereafter, the resultant endothelin-1 is assayed according to the sandwich-EIA method. An enzymatic activity of converting 1 pmol of big endothelin-1 to endothelin-1 per hour under the above-described reaction conditions is termed 1 U (unit).
(§2) A sample and a predetermined concentration of endothelin standard solution are respectively applied to a 96-hole microplate on which ani-endothelin monoclonal antibody is immobilized to thereby cause the […]. […] Then, biotin-labeled anti-endothelin polyclonal antibody and peroxydase-labeled avidin are applied thereto for reaction. After washing the microplate, activity of bound peroxydase is assayed. Endothelin concentration in the sample is assayed based on the calibration curve drawn by using endothelin standard solutions having predetermined concentrations of endothelin.
(§3) The enzymes of the invention were tested for the effects of various inhibitors against the activity of converting big endothelin-1 to endothelin-1.
(§4) Each of the enzymes is incubated in 100 μl of a reaction solution (10 mM tris-hydrochloric acid-0.15M sodium chloride buffer; pH 7.0) containing various inhibitors at 37° C. for 30 minutes, and the residual enzymatic activity is measured in the above-described manner.

The test system of test [2] is endothelin converting enzyme II. The experiment in a line: Effect of inhibitors on activity of converting big endothelin-1 to endothelin-1, enzyme II. On the procedure:
as §1, §2, §3, §4

Test [3] deals with endothelin converting enzyme III. The test can be described thus: Effect of inhibitors on activity of converting big endothelin-1 to endothelin-1, enzyme III. On the procedure: as §1, §2, §3, §4
The test system of test [4] is endothelin converting enzyme IV. The test can be described thus: Effect of inhibitors on activity of converting big endothelin-1 to endothelin-1, enzyme IV. The protocol: as §1, §2, §3, §4

Square brackets hold non-standard residues; d marks the D form. Peptide text beside a SMILES is read from it. * marks the point of attachment. Sta = CC(C)C[C@H](N)[C@@H](O)CC(=O)O; Isovaleryl = CC(C)CC(=O)*

As to `c1cnc2c(c1)ccc1cccnc12` [1,10-Phenanthroline], the “Relative Activity (%)” value turned out to be 10% in test [1] (inhibitor 0.5 mM), 5% in test [2] (inhibitor 0.5 mM), 7% in test [3] (inhibitor 0.5 mM) and 8% in test [4] (inhibitor 0.5 mM).

For `CC(C)CC(=O)N[C@H](C(=O)N[C@H](C(=O)N[C@@H](CC(C)C)[C@@H](O)CC(=O)N[C@@H](C)C(=O)N[C@@H](CC(C)C)[C@@H](O)CC(=O)O)C(C)C)C(C)C` [Pepstatin A] (Isovaleryl-VV[Sta]A[Sta]-OH), the “Relative Activity (%)” value in test [1] (inhibitor 0.01 mM) worked out at 99%; in test [2] (inhibitor 0.01 mM), 100%; in test [3] (inhibitor 0.01 mM), 99%; in test [4] (inhibitor 0.01 mM), 97%.

Consider `CC(C)C[C@H](NP(=O)(O)O[C@@H]1O[C@@H](C)[C@H](O)[C@@H](O)[C@H]1O)C(=O)N[C@@H](Cc1c[nH]c2ccccc12)C(=O)O` [Phosphoramidon], for which the “Relative Activity (%)” value is listed as 1% in test [1] (inhibitor 0.1 mM), 2% in test [2] (inhibitor 0.1 mM), 1% in test [3] (inhibitor 0.1 mM) and 3% in test [4] (inhibitor 0.1 mM).

(Values after patent publication US5462869A, “Human endothelin converting enzyme isolated from blood or placenta by hydrated density” (Nisshin Flour Milling Co., Ltd., priority 1991, dated 1995).)
